These results are taken from paper PMC7177849, “Gut Microbial Catabolites of Tryptophan Are Ligands and Agonists of the Aryl Hydrocarbon Receptor: A Detailed Characterization” (International Journal of Molecular Sciences, 2020).

Values joined by “and” are separate entries in the source; they are usually repeats but may differ in a detail not shown here. Equal entries are not always repeated. Where two headings read alike, the source gives them in different places.

One series relates to CYP1A1 mRNA. In words: CYP1A1 mRNA (qRT-PCR) in intestinal LS180 cells. The format is cell-based, human. The procedure: Figure 4 Effects of MICT on the induction of CYP1A1 mRNA in human hepatic and intestinal cells. Cultured cells were incubated for 24 h with the vehicle (DMSO; 0.1% v/v) and tested MICT in the presence or absence of TCDD (10 nM). RT-PCR determined the level of CYP1A1 mRNA, and the data were normalized per GAPDH mRNA level. […] (A,B) Experiments in three consecutive passages of human colon adenocarcinoma cell line LS180 in the absence (A) and the presence (B) of 10 nM TCDD. The bar graphs show the percentage of maximal induction attained by TCDD and are expressed as the mean ± SD. (C) Experiments in three consecutive passages of wild-type (AhR^+/^+) and AhR-knockout (AhR^−/^−) HT-29 cells. […] (D) Primary human hepatocytes from three different donors (LH79, Hep2201020, and Hep2201021).
Total RNA was isolated using TRI Reagent® (Sigma Aldrich, Prague, Czech Republic). cDNA was synthesized using M-MuLV reverse transcriptase (New England Biolabs, Ipswich, MA, USA). The reverse transcription was performed at 42 °C for 60 min using Random Primers 6 (New England Biolabs, Ipswich, MA, USA) and diluted in a 1:4 ratio by PCR-grade water. The quantitative reverse transcriptase-polymerase chain reaction (qRT-PCR) was performed on the Lightcycler 480 II using the LightCycler ® 480 Probes Master (Roche Diagnostic Corporation, Prague, Czech Republic). The levels of CYP1A1 and GAPDH mRNAs were determined using the Universal Probe Library probes (UPL; Roche Diagnostic Corporation, Prague, Czech Republic) in combination with specific primers, using a protocol described elsewhere. All measurements were performed in triplicates, and the gene expression was normalized to glyceraldehyde-3-phosphate dehydrogenase (GAPDH) as a house-keeping gene. The data were processed using the delta-delta Ct method and expressed as a fold induction over the negative control (DMSO) or as a percentage of the positive control (maximal induction by TCDD).
On the technique in general: Quantitative PCR measures a nucleic acid by following its amplification.

The next series has as its target T1, AhR (Homo sapiens, UniProt P35869).
T1 sequence (P35869 11-848): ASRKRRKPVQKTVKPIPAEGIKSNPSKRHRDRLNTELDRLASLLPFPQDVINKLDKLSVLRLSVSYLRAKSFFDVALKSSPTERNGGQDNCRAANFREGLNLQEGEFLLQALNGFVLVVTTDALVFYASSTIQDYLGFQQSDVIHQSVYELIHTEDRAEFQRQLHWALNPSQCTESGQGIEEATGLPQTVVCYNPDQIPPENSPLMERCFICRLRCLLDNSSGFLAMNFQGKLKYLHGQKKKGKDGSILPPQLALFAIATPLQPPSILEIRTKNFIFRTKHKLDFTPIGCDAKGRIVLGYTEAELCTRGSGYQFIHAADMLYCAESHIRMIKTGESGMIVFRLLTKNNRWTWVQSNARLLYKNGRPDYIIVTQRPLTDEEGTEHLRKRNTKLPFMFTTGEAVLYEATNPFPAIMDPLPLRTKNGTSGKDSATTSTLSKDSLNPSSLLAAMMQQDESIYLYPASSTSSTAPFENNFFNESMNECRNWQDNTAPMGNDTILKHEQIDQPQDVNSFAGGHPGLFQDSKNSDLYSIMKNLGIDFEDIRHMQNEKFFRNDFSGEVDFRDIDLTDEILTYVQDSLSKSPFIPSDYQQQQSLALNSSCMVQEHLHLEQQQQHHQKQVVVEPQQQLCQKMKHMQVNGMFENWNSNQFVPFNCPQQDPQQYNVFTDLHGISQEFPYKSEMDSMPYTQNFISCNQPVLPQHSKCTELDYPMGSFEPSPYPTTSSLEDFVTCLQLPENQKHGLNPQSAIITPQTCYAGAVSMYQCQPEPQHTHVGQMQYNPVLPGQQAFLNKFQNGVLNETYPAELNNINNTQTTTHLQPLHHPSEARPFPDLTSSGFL
In words: Immunofluorescence detection of nuclear translocation of the AhR in LS180 cells. Format: cell-based. Set-up: 0.1% V/V), TCDD (10 nM), and test MICT; host or cells: LS180 cells. How it is done: Figure 5 Effect of MICT on nuclear translocation of the AhR. LS180 cells were incubated for 90 min with vehicle (DMSO; 0.1% V/V), TCDD (10 nM), and test MICT. The experiments were performed in three consecutive cell passages with all tested compounds in duplication. Fluorescence images depict sub-cellular localization of AhR (upper panels) and nuclear staining by DAPI (lower panels). Representative micrographs are shown.
LS180 cells (60,000 cells/well) were plated on 8-well chambered slides (94.6140.802, Sarstedt, Nümbrecht, Germany) and allowed to grow overnight. Then, the cells were incubated with DMSO (0.1% V/V), TCDD (10 nM), IND (1000 µM), IPY (200 µM), 3MI (200 µM), TA (200 µM), IAC (100 µM), and IAD (200 µM). The staining procedure was described in detail elsewhere. The images were captured using an IX73 fluorescence microscope (Olympus, Tokyo, Japan). The immunofluorescence signal intensity (of the AhR antibody) in the nucleus was evaluated visually. For percentage calculation, approximately 500 cells from at least four randomly selected fields of view in each specimen were used.
Suppl. Table 1. Nuclear translocation of AhR – quantification of immunofluorescence.
LS180 cells were incubated for 90 min with MICT , vehicle or TCDD. Intracellular AhR was visualized with Alexa Fluor 488 labelled primary antibody. The whole staining protocol was performed in three independent experiments in technical duplicates. The AhR translocation was evaluated visually depending on the distinct signal intensity of AhR antibody in the nucleus and cytosol. For percentage calculation, approximately one hundred cells from at least four randomly selected fields of view in each

Where [1] appears, read: LS180 cells co-incubated with TCDD (10 nM), 24 h.
Where [2] appears, read: LS180, 90 min, exp 1, TCDD 10 nM, Indole 1 mM, IAC 100 µM, others 200 µM.
The mark [3] stands for this setting: LS180, 90 min, exp 2, TCDD 10 nM, Indole 1 mM, IAC 100 µM, others 200 µM.
[4] abbreviates: LS180, 90 min, exp 3, TCDD 10 nM, Indole 1 mM, IAC 100 µM, others 200 µM.
[5] abbreviates: mean ± SD, n = 3, relative to TCDD-treated cells, LS180, 90 min.
Setting [6] is: relative to TCDD-treated cells, LS180, 90 min, exp 1, same concentrations.
Setting [7] is: relative to TCDD-treated cells, LS180, 90 min, exp 2, same concentrations.
Setting [8] is: relative to TCDD-treated cells, LS180, 90 min, exp 3, same concentrations.

In the case of `Cc1c[nH]c2ccccc12` [3MI, skatole], in the series with CYP1A1 mRNA (setting [1]), the “antagonistic effects on CYP1A1 mRNA” value was “antagonistic effects were observed primarily”. Besides, the “induction of CYP1A1 mRNA” value with CYP1A1 mRNA (LS180 cells, 24 h) is given as “strong induction”. The “% positive AhR nuclei” value is listed as 65% on AhR (setting [2]), 72% on AhR (setting [3]) and 62% on AhR (setting [4]). Further, the “Ø AhR positive nuclei” value on AhR (setting [5]) amounted to 105 ± 13.8%. In addition, the “% relative AhR nuclei” value came out at 120% at AhR (setting [6]), 94% on AhR (setting [7]) and 102% on AhR (setting [8]).
As for `O=Cc1c[nH]c2ccccc12` [IA, indole-3-aldehyde], the “antagonistic effects on CYP1A1 mRNA” value in the series with CYP1A1 mRNA (setting [1]) is recorded as “antagonistic effects were observed primarily”.
Turning to `O=C(O)/C=C/c1c[nH]c2ccccc12` [IAC, indole-3-acrylate], in the series on CYP1A1 mRNA (setting [1]), the “antagonistic effects on CYP1A1 mRNA” value is “to a lesser extent”. In addition, the “induction of CYP1A1 mRNA” value in the series on CYP1A1 mRNA (LS180 cells, 24 h) is recorded as “strong induction”. The “% positive AhR nuclei” value at AhR (setting [2]) was found to be 51%; at AhR (setting [3]), 61%; at AhR (setting [4]), 73%. Further, the “Ø AhR positive nuclei” value on AhR (setting [5]) is reported as 98 ± 20.4%. The “% relative AhR nuclei” value on AhR (setting [6]) amounted to 94%; on AhR (setting [7]) it was 79%; at AhR (setting [8]), 120%.
Turning to `NC(=O)Cc1c[nH]c2ccccc12` [IAD, indole-3-acetamide], the “induction of CYP1A1 mRNA” value with CYP1A1 mRNA (LS180 cells, 24 h) is on record as “strong induction”. Also, the “% positive AhR nuclei” value on AhR (setting [2]) stood at 46%; at AhR (setting [3]), 73%; at AhR (setting [4]) it was 42%. Moreover, the “Ø AhR positive nuclei” value at AhR (setting [5]) turned out to be 83 ± 13.1%. Besides, the “% relative AhR nuclei” value on AhR (setting [6]) worked out at 85%; at AhR (setting [7]), 95%; on AhR (setting [8]), 69%.
For `O=C(O)C(O)Cc1c[nH]c2ccccc12` (centres unmarked) [ILA, indole-3-lactate], the “antagonistic effects on CYP1A1 mRNA” value with CYP1A1 mRNA (setting [1]) is “to a lesser extent”.
On to `c1ccc2[nH]ccc2c1` [IND, indole], for which, in the series on CYP1A1 mRNA, the “antagonistic effects on CYP1A1 mRNA” value was “antagonistic effects were observed primarily” and the “induction of CYP1A1 mRNA” value is given as “strong induction”. For the same compound, on AhR, the “% positive AhR nuclei” value is 61% and 73% and 65%; the “% relative AhR nuclei” value is 113% and 95% and 107%; the “Ø AhR positive nuclei” value is given as 105 ± 9.2%.
Turning to `O=C(O)C(=O)Cc1c[nH]c2ccccc12` [IPY, indole-3-pyruvate], the “antagonistic effects on CYP1A1 mRNA” value in the series with CYP1A1 mRNA (setting [1]) was “antagonistic effects were observed primarily”. In the series on CYP1A1 mRNA (LS180 cells, 24 h), the “induction of CYP1A1 mRNA” value is given as “strong induction”. In addition, the “% positive AhR nuclei” value on AhR (setting [2]) is 42%; at AhR (setting [3]), 60%; on AhR (setting [4]), 38%. The “Ø AhR positive nuclei” value at AhR (setting [5]) came out at 73 ± 9.0%. In addition, the figures for the “% relative AhR nuclei” value at AhR (setting [6]), at AhR (setting [7]) and on AhR (setting [8]) were 78%, 78% and 62%, respectively.
Regarding `NCCc1c[nH]c2ccccc12` [TA, tryptamine], the “induction of CYP1A1 mRNA” value in the series on CYP1A1 mRNA (LS180 cells, 24 h) is “strong induction”. In addition, the “% positive AhR nuclei” value is recorded as 44% at AhR (setting [2]), 65% at AhR (setting [3]) and 66% on AhR (setting [4]). Besides, the “Ø AhR positive nuclei” value at AhR (setting [5]) is recorded as 91 ± 14.6%. The “% relative AhR nuclei” value at AhR (setting [6]) is 81%; on AhR (setting [7]), 84%; on AhR (setting [8]), 108%.
Consider `Clc1cc2c(cc1Cl)Oc1cc(Cl)c(Cl)cc1O2` [TCDD, 2,3,7,8-tetrachlorodibenzo-p-dioxin, reference compound], for which the “% positive AhR nuclei” value stood at 54% at AhR (setting [2]), 77% at AhR (setting [3]) and 61% on AhR (setting [4]).
